Here are results for four compounds from publication PMC12426595 (Cancer Research Communications, 2025).

The nature of data set [1]: In vivo DDI: pravastatin pharmacokinetics. Particulars: male, C57BL/6, mouse, plasma, po, 20 mg/kg, C57BL/6 male, pravastatin 20 mg/kg oral.
Data set [2] in a line: In vivo DDI: gilteritinib pharmacokinetics. Particulars: plasma, po, 30 mg/kg, gilteritinib 30 mg/kg oral. Set-up: species or system mouse.
Data set [3] concerns P-gp. Particulars: cited from earlier work.
The target of data set [4] is T1, BTK-NanoLuc Fusion Vector in HEK293 cells (Homo sapiens, UniProt Q06187).
T1 construct: host or cells: HEK293
T1 sequence (Q06187 whole entry, the tested form may be a part): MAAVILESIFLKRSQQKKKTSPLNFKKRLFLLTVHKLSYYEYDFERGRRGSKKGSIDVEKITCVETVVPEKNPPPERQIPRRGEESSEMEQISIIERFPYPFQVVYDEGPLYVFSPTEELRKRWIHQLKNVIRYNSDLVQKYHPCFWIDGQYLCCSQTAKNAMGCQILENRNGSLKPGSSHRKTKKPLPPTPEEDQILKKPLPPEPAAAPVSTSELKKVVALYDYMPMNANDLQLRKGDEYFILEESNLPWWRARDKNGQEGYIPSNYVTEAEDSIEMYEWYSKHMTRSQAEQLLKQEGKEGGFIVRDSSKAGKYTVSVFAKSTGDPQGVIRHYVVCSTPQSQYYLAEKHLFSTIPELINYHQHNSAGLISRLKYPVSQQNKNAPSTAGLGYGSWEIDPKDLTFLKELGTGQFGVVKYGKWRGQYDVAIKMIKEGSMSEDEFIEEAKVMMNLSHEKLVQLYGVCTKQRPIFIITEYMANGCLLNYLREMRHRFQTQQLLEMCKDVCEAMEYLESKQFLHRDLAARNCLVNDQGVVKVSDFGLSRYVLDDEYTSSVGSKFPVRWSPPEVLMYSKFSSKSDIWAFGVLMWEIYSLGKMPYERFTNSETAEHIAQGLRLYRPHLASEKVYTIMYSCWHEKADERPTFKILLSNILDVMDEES
Nature of the data set: NanoBRET intracellular binding assay, BTK. Particulars: read-out: EC50 BTK (NanoBRET), positive control. The method, then:
Intracellular binding was determined with a NanoBRET assay (Reaction Biology). […] The protein kinase inhibitors dasatinib and […] were used as positive controls.
On the technique in general: Bioluminescence resonance energy transfer reports proximity on the nanometre scale.

Setting [5] is: female, C57BL/6, mouse, C57BL/6 female, perpetrator TL-895 3 mg/kg.
The mark [6] stands for this setting: female, C57BL/6, mouse, C57BL/6 female, perpetrator vehicle.
Setting [7] is: female, NSG (NOD/SCID gamma), mouse, NSG female, perpetrator TL-895 3 mg/kg.
The mark [8] stands for this setting: female, NSG (NOD/SCID gamma), mouse, NSG female, perpetrator vehicle.
Setting [9] is: male, C57BL/6, mouse, C57BL/6 male, perpetrator TL-895 3 mg/kg.
[10] abbreviates: male, C57BL/6, mouse, C57BL/6 male, perpetrator vehicle.
Where [11] appears, read: male, NSG (NOD/SCID gamma), mouse, NSG male, perpetrator TL-895 3 mg/kg.
[12] abbreviates: male, NSG (NOD/SCID gamma), mouse, NSG male, perpetrator vehicle.

Consider `CC[C@H](C)C(=O)O[C@H]1C[C@H](O)C=C2C=C[C@H](C)[C@H](CC[C@@H](O)C[C@@H](O)CC(=O)O)[C@H]21` [Pravastatin, pravastatin], for which the area under the curve (AUC) in data set [1] (perpetrator TL-895 10 mg/kg) is 49.8 ± 7.6 ng·h/mL; in data set [1] (perpetrator rifampin 20 mg/kg), 333 ± 64 ng·h/mL; in data set [1] (perpetrator vehicle), 102 ± 42 ng·h/mL. Further, the peak concentration (Cmax) was 182 ± 31 ng/mL in data set [1] (perpetrator TL-895 10 mg/kg), 994 ± 148 ng/mL in data set [1] (perpetrator rifampin 20 mg/kg) and 406 ± 186 ng/mL in data set [1] (perpetrator vehicle).
`CCc1nc(C(N)=O)c(Nc2ccc(N3CCC(N4CCN(C)CC4)CC3)c(OC)c2)nc1NC1CCOCC1` [Gilteritinib, gilteritinib]: the AUC came to 6440 ng·h/mL in data set [2] (setting [5]); 6980 ng·h/mL in data set [2] (setting [6]); 4830 ng·h/mL in data set [2] (setting [7]); 4930 ng·h/mL in data set [2] (setting [8]); 5130 ng·h/mL in data set [2] (setting [9]); 4960 ng·h/mL in data set [2] (setting [10]). Besides, the exposure (AUC) in data set [2] (setting [11]) stood at 4370 ng·h/mL; in data set [2] (setting [12]) it was 4410 ng·h/mL. Moreover, the Cmax in data set [2] (setting [5]) came out at 688 ± 97 ng/mL; in data set [2] (setting [6]), 787 ± 102 ng/mL; in data set [2] (setting [7]), 507 ± 28 ng/mL; in data set [2] (setting [8]), 593 ± 87 ng/mL; in data set [2] (setting [9]), 502 ± 113 ng/mL; in data set [2] (setting [10]) it was 469 ± 51 ng/mL. The maximum concentration (Cmax) in data set [2] (setting [11]) came to 421 ± 20 ng/mL; in data set [2] (setting [12]) it was 440 ± 86 ng/mL.
For the compound `C=CC(=O)N1CCC[C@@H](n2nc(-c3ccc(Oc4ccccc4)cc3)c3c(N)ncnc32)C1` [ibrutinib], the “effect of P-gp deficiency on overall exposure” value in data set [3] is reported as “only minimal effects”.
Take `CNC(=O)c1ccccc1Nc1nc(Nc2ccc(N3CCNCC3)cc2)ncc1Cl` [CTx-0294885]: the EC50 in data set [4] is 0.0301 µM.

By AUC is commonly meant the area under the concentration-time curve, a measure of exposure. A low value points to low exposure. One may read the Cmax as the maximum level reached in the sampled fluid or tissue. By EC50 is commonly meant the concentration giving half of the maximal effect.
